In patent US20230272221A1, “REAGENTS FOR LABELING BIOMOLECULES” (Ultima Genomics, Inc., priority 2020, published 2023):

Columns and labels:
[1] = enzyme-independent bead assay for evaluating quenching with linker arm oligonucleotides; type: physicochemical; details: APC (red) channel, FIG. 14
Text: The dye-labeled nucleotides provided herein may improve quenching between nucleobases and the dyes to which they are attached and/or between dyes in a nucleic acid molecule (e.g., a growing nucleic acid strand), such as in a homopolymeric region of a nucleic acid molecule. Quenching may be evaluated in an enzyme-independent manner.
Synthetic oligos are constructed with one or two “linker arm nucleotides”. Linker arm nucleotides are thymidine analogs with a linker arm containing a primary amine. The oligonucleotide containing the linker arm nucleotide can be labeled with linkers and dyes and HPLC purified. The advantage of using the bead-labeled assay is that exact quantitation of the reagents is not necessary; a large excess can be used in each step and the beads washed, ensuring that only stoichiometric amounts of oligonucleotides are bound to the template. Each dye-linker is put on both oligonucleotides. The beads are measured on the flow cytometer in the APC (red) channel. The percent quenching is determined by the formula: % quenching=100×(1−Flbis/(2*Flmono)).
FIGS. 14 and 15 show quenching results for red dye linkers (FIG. 14) and green dye linkers (FIG. 15). […] The hyp10 or hyp20 linkers improve quenching.

[2] = relative fluorescence of dyes coupled directly to oligos, double-stranded DNA bound to beads, flow cytometer; type: physicochemical; details: FIG. 26
Description: Fluorescence was measured with double-stranded DNA bound to beads using a flow cytometer. […] Accordingly, green dyes may have an inherent advantage over red dyes. This difference may owe at least in part to Atto633 being hydrophobic while Atto532 is comparatively hydrophilic.

| SMILES | quenching, red dye linkers [1] | brightness of two dyes relative to a single dye coupled to an oligo [2] [×] |
| --- | --- | --- |
| CC[N+]1=c2cc3c(cc2CCC1)=C(c1ccccc1C(=O)N(C)CCCC(=O)O)c1ccc(N(C)C)cc1C3(C)C [Atto633] | hyp10 improves quenching | 0.4 |
| CCN1/C(=C/C=C/C=C/C2=[N+](CCCCCC(=O)O)c3ccc(S(=O)(=O)O)cc3C2(C)C)C(C)(C)c2cc(S(=O)(=O)[O-])ccc21 [Cy5] | quenching may not be improved |  |
